Assay results as given in US9107909B2, “Materials and methods to enhance hematopoietic stem cells engraftment procedures” (priority 2008, dated 2015).
“Also recorded” adds a separate entry of the source. Counter-ions that a name gives are not always drawn.

Experiments:
[1] = tested on: SKL cells; assay: HSPC homing to bone marrow in vivo; parameters: species or system mouse; conditions: 10 microMolar AMD3100, cells incubated before homing assay; dihydrate
Method: CD45.2 WBM was labeled with CFSE (Molecular Probes, Eugene, Oreg.) washed and treated on ice with either 1 microMolar dmPGE2 or vehicle. After treatment, cells were washed and 2×10^7 cells transplanted into lethally irradiated CD45.2 mice. After 16 hours, femurs and tibias were flushed, and a proportion of mouse marrow Lin^+ cells depleted using MACS microbeads (Miltenyi Biotech), stained with fluorochrome-conjugated-antibodies specific for biotin (lineage), c-kit (K), and Sca-1 (S) and the total number of CFSE^+ WBM (non lineage depleted), KL and SKL cells determined. For congenic homing studies, Lin^neg CD45.1 cells were treated on ice with 1 microMolar dmPGE2, vehicle, or PBS. After incubation, cells were washed and 2×10^6 cells transplanted into CD45.2 mice. After 16 hours, recipient bone marrow was harvested, lineage depleted, stained, and donor CD45.1 SKL cells determined. For competitive, head-to-head homing studies using sorted SKL cells, Lin^neg cells from CD45.2 and CD45.1 mice were FACS sorted, cells treated with either dmPGE2 or vehicle for 2 hours, washed and 3×10^4 CD45.1 (vehicle or dmPGE2 treated) plus 3×10^4 CD45.2 (dmPGE2 or vehicle treated) SKL cells transplanted into lethally irradiated F1 Hybrid mice. To evaluate the role of CXCR4 in homing studies, Lin^neg CD45.2 cells were treated on ice with vehicle or 1 microMolar dmPGE2 plus 10 microMolar AMD3100 (AnorMed Inc., Vancouver, BC, Canada) and 2×10^6 treated cells injected into lethally irradiated CD45.1 mice. Homed SKL cells were analyzed 16 hours post-transplant.
Irrespective of its cause a marrow niche is required for HSPC to self-renew and differentiate and it is very likely that only HSPC homing to these niches can provide long-term repopulation. Referring now to FIG. 3A, in order to assess HSPC homing, CFSE labeled whole bone marrow (WBM) CD45.2 cells were pulsed with dmPGE2 or vehicle for 2 hours on ice, washed and injected IV in lethally irradiated CD45.2 hosts. After 16 hours, total CFSE^+ cells homing to bone marrow as well as the number of homed events within the KL and SKL cell populations were quantified.
Highly purified SKL cells from both CD45.2 and CD45.1 mice were isolated by FACS sorting, treated with dmPGE2 or vehicle, and 3×10^4 vehicle-treated CD45.1 cells plus 3×10^4 dmPGE2-treated CD45.2 cells transplanted into CD45.1/CD45.2 mice. An additional cohort was concurrently transplanted with congenic strain and treatment groups were switched to test for any bias in strain homing. […] Although SKL cells are not a homogenous HSPC population, they are highly enriched for LTRC (Okada et al., 1992; Spangrude and Scollay, 1990).
To evaluate the role of CXCR4 in homing, Lineage^neg CD45.2 cells were treated with vehicle or 1 microMolardmPGE2 plus 10 microMolar AMD3100, 2×10^6 treated cells injected into lethally-irradiated CD45.1 mice and homed SKL cells recovered 16 hours post-transplant and analyzed by FACS. Referring now to FIG. 11, homing efficiency of vehicle and dmPGE2 treated cells to bone marrow in the absence and presence of 10 microMolar AMD3100. Cells were incubated with AMD3100 for 30 minutes prior to the homing assay.

[2] = tested on: CFU-GM; assay: CFU-GM mobilization to peripheral blood in mice; format: in vivo, mouse; conditions: for CFU-GM / peripheral blood stem cell mobilization with G-CSF: co-administered with G-CSF, 4 days, vs G-CSF alone
Method: Since PGE2 increases CXCR4 receptor expression and SDF-1/CXCR4 signalling is important for trafficking and retention of HSPC in the marrow. […] Data are expressed as mean±SEM CFU-GM mobilized per ml of blood for N=3 mice each assayed individually.
Mice were given SC treatments of 150 microgram/kg indomethacin or 150 microgram/kg baicalein (lipoxygenase inhibitor) in gelatin every 48 hours with or without G-CSF for 4 days. CFU-GM mobilization was determined as previously described (Pelus et. al., Experimental Hematology 33 (2005) 295-307). […] Data are expressed as mean±SEM CFU-GM mobilized per ml of blood for N=3 mice each assayed.
Referring now to FIG. 16, mice were given daily, bid SC injections with G-CSF (1 microgram per mouse) or G-CSF+indomethacin (50 microgram per mouse) for 4 days. CFU-GM mobilization was determined as described (Pelus et. al., Experimental Hematology 33 (2005) 295-307).
Mice were given daily, bid SC injections with vehicle or Indomethacin (50 microgram per mouse) for four days. On day 5, mice were given either vehicle or AMD3100 (5 mg/kg). One hour later mice were sacrificed and CFU-GM mobilization was determined as previously described (Pelus et. al., Experimental Hematology 33 (2005) 295-307). […] Data are expressed as mean±SEM, n=5 mice per group, each assayed individually.
Mice were mobilized with G-CSF and CFU-GM in PB was compared to mobilization regimens with G-CSF and the combination of various NSAIDS (Aspirin [COX-1 and COX-2]; Licofelone [COX-2 and 5-LOX]; SC-560 [COX-1]; Valeryl Salicylate [COX-1]; Valdecoxib [COX-2]; NS-398 [COX-2]). […] In order to test the efficacy of two commonly used COX inhibitors, mice were mobilized with G-CSF or the combination of G-CSF and aspirin or ibuprofen (PO., bid, 4 days). CFU-GM was determined as previously described. Referring now to FIG. 28, dose-response analysis of G-CSF+Aspirin and G-CSF+Ibuprofen mobilization of CFU-GM to peripheral blood are present in bar graph form for a control group of mice treated with only G-CSF; for mice treated with G-CSF plus 10, 20 or 40 milligram/kg of aspirin; and for mice treated with G-CSF plus 10, 20 or 40 milligram/kg of ibuprofen. Data are expressed as mean±SEM, n=4 mice per group, each assayed individually.

[3] = tested on: mobilized PBMC; assay: Competitive transplantation of mobilized PBMC; format: in vivo, mouse; conditions: co-administered with G-CSF without stagger, 12 weeks post transplant, vs G-CSF alone
Text: Data are expressed as mean±SEM, n=5 mice per group, each assayed individually.

Row | Compound | effect of CXCR4 antagonist on SKL cell homing and on PGE2-enhanced homing [1] | baseline CFU-GM mobilization ([2]; 150 μg/kg SC, alone) | CFU-GM / peripheral blood stem cell mobilization with G-CSF [2] | increase in the number of mobilized progenitor cells (CFU-GM) ([2]; 150 μg/kg SC once daily for 4 days, alone) | HSPC (CFU-GM) mobilization in combination with AMD3100 ([2]; 50 microgram per mouse bid SC 4 days, AMD3100 5 mg/kg day 5) | CFU-GM / peripheral blood stem cell mobilization with G-CSF ([2]; listed as Indomethacin) | engraftment (competitive repopulating units) of mobilized PBMC [3]
1 | c1cc(CN2CCCNCCNCCCNCC2)ccc1CN1CCCNCCNCCCNCC1 [AMD3100, 1,1′-[1,4-Phenylenebis(methylene)]bis[1,4,8,11-tetraazacyclotetradecane]octohydrobromide dihydrate] | reduced SKL cell homing and abrogated the improved homing efficiency; also recorded: significantly reduced |  |  |  |  |  | 
2 | O=c1cc(-c2ccccc2)oc2cc(O)c(O)c(O)c12 [baicalein] |  | no effect | no effect |  |  |  | 
3 | COc1ccc2c(c1)c(CC(=O)O)c(C)n2C(=O)c1ccc(Cl)cc1 [indomethacin, 2-{1-[(4-chlorophenyl)carbonyl]-5-methoxy-2-methyl-1H-indol-3-yl}acetic acid] |  |  | highly synergistic increase; also recorded: larger fold increase | 4 fold | Mobilizes HSPC | synergistically mobilize; also recorded: synergistic effect | no improvement in engraftment
